{"source": "patent US20250049743A1", "about": "“METHOD OF PRODUCING AN ORAL OSMOTIC PHARMACEUTICAL DELIVERY SYSTEM AND A PHARMACEUTICAL BATCH PRODUCED USING THE SAME” (United Therapeutics Corporation, priority 2023, published 2025)", "origin": "cited, not measured here", "details": "treprostinil as the free acid"}
{"smiles": "CCCCC[C@H](O)CC[C@@H]1[C@H]2Cc3cccc(OCC(=O)O)c3C[C@H]2C[C@H]1O", "note": "[treprostinil]", "values": [{"measurement": "absolute oral bioavailability", "value": "less than 10%"}]}
